Tests used:
SadA = molecular target: T1, SadA (Burkholderia ambifaria, UniProt Q0B2N4); test: X-ray crystal structure, […] Å; format: binding; conditions: Zn(II) in place of Fe(II); cocrystallized with 10 mM α-KG; 0.1 M CHES pH 9.5, 30% PEG 3,000, 293 K; active site, chain A, bidentate to the metal
T1 construct: gene Bamb_6045; dimer
T1 sequence (Q0B2N4 1-273): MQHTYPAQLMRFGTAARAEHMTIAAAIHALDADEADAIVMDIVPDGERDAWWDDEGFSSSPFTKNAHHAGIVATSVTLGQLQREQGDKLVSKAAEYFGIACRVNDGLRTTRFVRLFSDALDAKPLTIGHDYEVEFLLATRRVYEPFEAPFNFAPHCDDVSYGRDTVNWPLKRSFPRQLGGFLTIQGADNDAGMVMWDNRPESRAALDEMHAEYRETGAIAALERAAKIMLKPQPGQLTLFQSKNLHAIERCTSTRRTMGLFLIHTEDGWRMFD

[1] = molecular target: SadA, N-substituted L-amino acid dioxygenase from Burkholderia ambifaria AMMD (Burkholderia ambifaria AMMD); test: SEC; Superdex 200 size-exclusion chromatography; calibrated with ovalbumin (43 kDa) and conalbumin (75 kDa)

Molecule	X-ray crystal structure, 1.98 Å (SadA)	stoichiometry N [1]
O=C(O)CCC(=O)C(=O)O [α-KG]	only one α-KG molecule is clearly observed in chain A of the SadA.Zn(II).α-KG structure	–
SadA, N-substituted L-amino acid dioxygenase from Burkholderia ambifaria AMMD (enzyme)	–	2
